In the supplement of paper PMC10627819:

Legend:
Test in all cases: fitness (endpoint OD595 vs no drug) (fraction); higher = more growth
S. pneumoniae D39V = system: S. pneumoniae D39V
Procedure, shortened: (§1)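 Fitness compares growth at the stationary-phase transition with the robust mean of no-drug control wells, as a ratio of optical densities. The ratio is capped at 1. Wells of 384-well plates held 30 µl, or 55 µl for S. pneumoniae, inoculated at OD595 0.01. Readings at OD595 every 30 min for 14 h at 37 °C were corrected against the first reading.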

B. subtilis 168 = system: B. subtilis 168
Procedure, shortened: as §1

S. aureus DSM 20231 = system: S. aureus DSM 20231
Procedure, shortened: as §1
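Further: OD595 on entry to stationary phase over no-drug wells; at most 1.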

CN(C)[C@@H]1C(O)=C(C(N)=O)C(=O)[C@@]2(O)C(O)=C3C(=O)c4c(O)ccc(Cl)c4[C@@](C)(O)[C@H]3C[C@@H]12 [Chlortetracycline] + COc1c(N2C[C@@H]3CCCN[C@@H]3C2)c(F)cc2c(=O)c(C(=O)O)cn(C3CC3)c12 [Moxifloxacin]
Conditions | fitness
B. subtilis 168, first compound 0.0475 µg/mL, partner 0.0312 µg/mL | 0.0451
B. subtilis 168, first compound 0.0475 µg/mL, partner 0.0625 µg/mL | 0.0327
B. subtilis 168, first compound 0.0475 µg/mL, partner 0.125 µg/mL | 0.0439
B. subtilis 168, first compound 0.0475 µg/mL, partner 2 µg/mL | 0.0242
B. subtilis 168, first compound 0.0475 µg/mL, partner 4 µg/mL | 0.0248
B. subtilis 168, first compound 0.0475 µg/mL, partner 8 µg/mL | 0.0159
B. subtilis 168, first compound 0.095 µg/mL, partner 0.0312 µg/mL | 0.104
B. subtilis 168, first compound 0.095 µg/mL, partner 0.0625 µg/mL | 0.0278
B. subtilis 168, first compound 0.095 µg/mL, partner 0.125 µg/mL | 0.0296
B. subtilis 168, first compound 0.095 µg/mL, partner 2 µg/mL | 0.0289
B. subtilis 168, first compound 0.095 µg/mL, partner 4 µg/mL | 0.0255
B. subtilis 168, first compound 0.095 µg/mL, partner 8 µg/mL | 0.0155
B. subtilis 168, first compound 0.19 µg/mL, partner 0.0312 µg/mL | 0.0533
B. subtilis 168, first compound 0.19 µg/mL, partner 0.0625 µg/mL | 0.0332
B. subtilis 168, first compound 0.19 µg/mL, partner 0.125 µg/mL | 0.0433
B. subtilis 168, first compound 0.19 µg/mL, partner 2 µg/mL | 0.0261
B. subtilis 168, first compound 0.19 µg/mL, partner 4 µg/mL | 0.0247
B. subtilis 168, first compound 0.19 µg/mL, partner 8 µg/mL | 0.0129
S. aureus DSM 20231, first compound 0.012 µg/mL, partner 0.0075 µg/mL | 0.558
S. aureus DSM 20231, first compound 0.012 µg/mL, partner 0.015 µg/mL | 0.539
S. aureus DSM 20231, first compound 0.012 µg/mL, partner 0.03 µg/mL | 0.604
S. aureus DSM 20231, first compound 0.024 µg/mL, partner 0.0075 µg/mL | 0.193
S. aureus DSM 20231, first compound 0.024 µg/mL, partner 0.015 µg/mL | 0.177
S. aureus DSM 20231, first compound 0.048 µg/mL, partner 0.0075 µg/mL | 0.185
S. aureus DSM 20231, first compound 0.048 µg/mL, partner 0.015 µg/mL | 0.172
S. aureus DSM 20231, first compound 0.048 µg/mL, partner 0.03 µg/mL | 0.132
S. pneumoniae D39V, first compound 0.012 µg/mL, partner 0.005 µg/mL | 0.907
S. pneumoniae D39V, first compound 0.012 µg/mL, partner 0.01 µg/mL | 0.923
S. pneumoniae D39V, first compound 0.012 µg/mL, partner 0.02 µg/mL | 0.765
S. pneumoniae D39V, first compound 0.024 µg/mL, partner 0.005 µg/mL | 0.863
S. pneumoniae D39V, first compound 0.024 µg/mL, partner 0.01 µg/mL | 0.915
S. pneumoniae D39V, first compound 0.024 µg/mL, partner 0.02 µg/mL | 0.844
S. pneumoniae D39V, first compound 0.048 µg/mL, partner 0.005 µg/mL | 0.821
S. pneumoniae D39V, first compound 0.048 µg/mL, partner 0.01 µg/mL | 0.871
S. pneumoniae D39V, first compound 0.048 µg/mL, partner 0.02 µg/mL | 0.78
S. pneumoniae D39V, first compound 0.375 µg/mL, partner 0.0312 µg/mL | 0.0285
S. pneumoniae D39V, first compound 0.375 µg/mL, partner 0.0625 µg/mL | 0.0351
S. pneumoniae D39V, first compound 0.375 µg/mL, partner 0.125 µg/mL | 0.0309
S. pneumoniae D39V, first compound 0.75 µg/mL, partner 0.0312 µg/mL | 0.0253
S. pneumoniae D39V, first compound 0.75 µg/mL, partner 0.0625 µg/mL | 0.0219
S. pneumoniae D39V, first compound 0.75 µg/mL, partner 0.125 µg/mL | 0.0157
S. pneumoniae D39V, first compound 1.5 µg/mL, partner 0.0312 µg/mL | 0.0473
S. pneumoniae D39V, first compound 1.5 µg/mL, partner 0.0625 µg/mL | 0.0386
S. pneumoniae D39V, first compound 1.5 µg/mL, partner 0.125 µg/mL | 0.0409

S. aureus DSM 20231, one replicate
Conditions | fitness
first compound 0.006 µg/mL, partner 0.0075 µg/mL | 0.729
first compound 0.006 µg/mL, partner 0.015 µg/mL | 0.719
first compound 0.006 µg/mL, partner 0.03 µg/mL | 0.621
first compound 0.012 µg/mL, partner 0.06 µg/mL | 0.659
first compound 0.012 µg/mL, partner 0.12 µg/mL | 0.548
first compound 0.024 µg/mL, partner 0.06 µg/mL | 0.66
first compound 0.024 µg/mL, partner 0.12 µg/mL | 0.535
first compound 0.048 µg/mL, partner 0.06 µg/mL | 0.14
first compound 0.048 µg/mL, partner 0.12 µg/mL | 0.165

CN(C)[C@@H]1C(O)=C(C(N)=O)C(=O)[C@@]2(O)C(O)=C3C(=O)c4c(O)ccc(Cl)c4[C@@](C)(O)[C@H]3C[C@@H]12 [Chlortetracycline] + COc1ccc(C[C@H](N)C(=O)N[C@H]2[C@@H](O)[C@H](n3cnc4c(N(C)C)ncnc43)O[C@@H]2CO)cc1 [Puromycin]
fitness, one replicate
Conditions | first compound 0.006 µg/mL | first compound 0.012 µg/mL | first compound 0.024 µg/mL | first compound 0.048 µg/mL
S. aureus DSM 20231, partner 0.39 µg/mL | 0.853 | – | – | –
S. aureus DSM 20231, partner 0.78 µg/mL | 0.847 | – | – | –
S. aureus DSM 20231, partner 1.56 µg/mL | 0.731 | – | – | –
S. aureus DSM 20231, partner 3.12 µg/mL | – | 0.325 | 0.0559 | 0.0249
S. aureus DSM 20231, partner 6.24 µg/mL | – | 0.0809 | 0.0524 | 0.0264
S. pneumoniae D39V, partner 1 µg/mL | – | 0.822 | 0.875 | 0.647
S. pneumoniae D39V, partner 2 µg/mL | – | 0.793 | 0.773 | 0.453
S. pneumoniae D39V, partner 4 µg/mL | – | 0.619 | 0.606 | 0.171

fitness
Conditions | partner 0.39 µg/mL | partner 0.78 µg/mL | partner 1 µg/mL | partner 1.56 µg/mL | partner 2 µg/mL | partner 4 µg/mL
B. subtilis 168, first compound 0.0475 µg/mL | 0.858 | 0.901 | – | 0.904 | – | –
B. subtilis 168, first compound 0.095 µg/mL | 0.741 | 0.728 | – | 0.671 | – | –
B. subtilis 168, first compound 0.19 µg/mL | 0.512 | 0.459 | – | 0.351 | – | –
S. aureus DSM 20231, first compound 0.012 µg/mL | 0.567 | 0.589 | – | 0.497 | – | –
S. aureus DSM 20231, first compound 0.024 µg/mL | 0.2 | 0.217 | – | 0.137 | – | –
S. aureus DSM 20231, first compound 0.048 µg/mL | 0.053 | 0.171 | – | 0.0612 | – | –
S. pneumoniae D39V, first compound 0.375 µg/mL | – | – | 0.0657 | – | 0.0757 | 0.0703
S. pneumoniae D39V, first compound 0.75 µg/mL | – | – | 0.0562 | – | 0.0783 | 0.0776
S. pneumoniae D39V, first compound 1.5 µg/mL | – | – | 0.0348 | – | 0.0557 | 0.0492
